These results are taken from patent publication US20130005678A1, “Methods and Compositions for Treating or Ameliorating Cancer Using Gemcitabine-5'-Elaidate” (CLAVIS PHARMA ASA, priority 2010, published 2013).

In one test the test system is WiDr-LF cell line. As to the kind of experiment: Combination with pemetrexed under low folate conditions (WiDr-LF). The note with it: MTT assay. Type of test: cell-based, human. How it is done:
(§1) The cell lines A549 human NSCLC and WiDr human colon carcinoma are used to determine the combination index and also the effect of Gemcitabine-5′-elaidate on the cell cycle. A sulforhodamine B colorimetric assay is used to determine growth inhibition after 72 hours. Pemetrexed combinations are tested using the MTT assay. Combinations with pemetrexed are also tested in the WiDr-LF cell line, which are WiDr cells cultured under low folate conditions. The IC25 and IC50 values (inhibitory concentrations at 25% or 50%, respectively) are calculated. The IC25 value is used for combinations with serial dilutions of oxaliplatin or docetaxel, and the IC50 value is used for pemetrexed combinations. Median effect analysis is performed.
A general note: Tetrazolium dyes change colour on reduction, which living cells bring about.

A further test relates to CEM cells. As to the kind of experiment: Intracellular dFdCTP level in CEM cells with or without dipyridamole (HPLC). The test is classed as cell-based, human. How it is done: hENT1 can inhibited in vitro by various agents including dipyridamole, NBMPR, and NBI. In order to test whether gemcitabine-5′-elaidate entry into the cells is independent of a nucleoside transporter such as hENT1, dipyridamole is used to block hENT1. The intracellular level of dFdCTP is determined in CEM cells after 60 minutes exposure to either dFdC or gemcitabine-5′-elaidate, with or without the addition of dipyridamole (DP). The compounds are administered at 10 μM, and the triphosphates are determined using HPLC. Deamination is blocked using tetrahydrouridine.

A further test concerns CEM and CEM-Ara-C/8. As to the kind of experiment: Tumor cell killing in vitro in CEM and hENT1-deficient CEM-Ara-C/8 (FIGS. 5A-5B). Type of test: cell-based. The note with it: CEM vs hENT1-deficient CEM-Ara-C/8. An excerpt: CEM: T-lymphoblastic leukemia cell line. CEM-Ara-C/8: Clonal derivative of CEM with hENT1 transporter deficiency.
The test system of the next test is human glioma cells U373. The experiment in a line: Antitumor activity in human glioma U373 grown intracerebrally. The test is classed as in vivo. How it is done: NMRI male mice are inoculated with human glioma cells U373 intracerebrally. The tumors at the injection site (at the surface of the brain), as well as the intracerebral tumors, are evaluated. Gemcitabine-5′-elaidic acid ester is administered intraperitoneally on Days 4-8, 11-15, 18-22, and 25-29 and is active at 4 mg/kg per injection.

For the next test, the system named is pancreatic cancer. As to the kind of experiment: Treatment of a pancreatic cancer patient with low hENT1 expression. The test is classed as in vivo, human. How it is done: An individual is diagnosed with pancreatic cancer. The patient provides a sample. The sample contains cancerous cells from the patient. The sample comes from a biopsy of the tumor, from circulating tumor cells, or from another source.
The sample is tested to determine the level of expression of hENT1 or another nucleoside transporter. The level is detected by immunohistochemistry, by determining the amount of mRNA relevant to hENT1 in the sample, or by other known means.
The testing of the sample takes place at a testing facility. The physician or their staff ships the sample to this facility. The sample is fixed or frozen for shipment. The sample is mixed with an antibody prior to shipment and analyzed when it arrives at the facility or the sample is shipped with no antibody added prior to shipment.
The nucleoside transporter level is compared to a control. The control is non-cancerous cells from the patient or is samples from another population. The control samples are analyzed at the same time as the sample or the analysis is based upon computer stored data where the comparison is done by using a rule based upon previously collected and characterized control data. This comparison allows for the classification of the sample as a “high,” “low,” or “normal,” sample based upon nucleoside transporter levels. […]

The subject of another test is P388 leukemia cells. The experiment in a line: Antitumor effect in P388 murine leukemia model. Type of test: in vivo. As to conditions: B6D2F1 female mice; intraperitoneal; single doses or daily for 10 consecutive days; all tested doses and schedules.
The next test deals with A549 human NSCLC. The experiment in a line: Combination study in vitro, growth inhibition, median effect analysis (A549). Type of test: cell-based. The method, then: as §1
For test [1], the system named is human colon cancer Co5776. The experiment in a line: Antitumor activity in human colon xenograft Co5776. Type of test: in vivo. The method, then: Fragments of human colon cancers Co5776 and Co6044 are implanted subcutaneously in NCR female mice (7-8 mice/group). Gemcitabine (120 mg/kg) and gemcitabine-5′-elaidic acid ester (40 mg/kg) are administered intraperitoneally, every third day for five times.
NCr female mice implanted subcutaneously with human colon carcinoma fragments, Co5776, are treated intraperitoneally. Two different schedules of gemcitabine-5′-elaidic acid ester are administered, once weekly times 2 (Days 11 and 18), and every third day times 5 (Days 11, 14, 17, 20, and 23). Antitumor activity of gemcitabine-5′-elaidic acid ester is similar for 150 mg/kg once weekly, administered twice or 40 mg/kg every third day administered five times.
(In xenograft studies the graft and the host belong to different species.)

Setting [2] is: 72 hours, sulforhodamine B assay.

For the compound `CCCCCCCC/C=C/CCCCCCCC(=O)OC[C@H]1O[C@@H](n2ccc(N)nc2=O)C(F)(F)[C@@H]1O` [gemcitabine-5′-elaidic acid ester], in the test with WiDr-LF cell line, the “antagonistic activity of combination with pemetrexed under low folate conditions” value is reported as “slightly reduced”. Besides, the “dFdCTP levels with inhibitor (DP) compared to without inhibitor” value with CEM cells (10 μM) is on record as “even increased”. The “time of maximum dFdCTP concentration” value in the test with CEM cells (10 μM, after exposure) was “reached at the last time point measured”. Further, the “dFdCTP accumulation with blocked nucleoside transporters (FIG. 3)” value with CEM cells (transporters blocked) is reported as “accumulates in cells despite blocking transporters”. The “tumor cell killing in relation to hENT1” value in the test on CEM and CEM-Ara-C/8 is on record as “kills tumor cells in vitro independent of hENT1”. Also, in the test on human glioma cells U373 (NMRI male mice, U373 intracerebrally, intraperitoneally Days 4-8, 11-15, 18-22, 25-29, 4 mg/kg per injection), the antitumor activity result is “active”. For the same compound, the activity intracerebrally entry in the test on human glioma cells U373 (after intraperitoneal administration) is “active intracerebrally”. Moreover, the response to treatment result in the test with pancreatic cancer is “responds favorably”. In addition, the antitumor activity entry in the test with P388 leukemia cells is on record as “significant antitumor activity”. In the test with A549 human NSCLC (setting [2]), the “combination effect with docetaxel” value is “antagonistic” and the “combination effect with oxaliplatin” value is “synergistic”. Further, the “combination effect with pemetrexed” value in the test with A549 human NSCLC (MTT assay) is on record as “Antagonistic activity”. For the same compound, the “activity compared with gemcitabine” value in test [1] (40 mg/kg vs gemcitabine 120 mg/kg, intraperitoneally every third day five times) was “similar”. Moreover, the antitumor effect result in test [1] (NCR female mice, intraperitoneally every third day five times, gemcitabine 120 mg/kg, gemcitabine-5′-elaidic acid ester 40 mg/kg) is reported as “Significant antitumor effect”. In test [1] (NCr female mice, intraperitoneal, 150 mg/kg once weekly times 2 vs 40 mg/kg every third day times 5), the “antitumor activity, comparison of schedules” value is “similar”.
